Consider 2 molecules from ChEMBL document CHEMBL1147548, “Didehydrofarnesyl diphosphate: an intrinsically fluorescent inhibitor of protein farnesyltransferase” (Bioorg Med Chem Lett, 2004).

The target of series [1] is T1, Farnesyltransferase (Saccharomyces cerevisiae S288c, UniProt P22007+P29703).
T1 sequence (P29703 whole entry): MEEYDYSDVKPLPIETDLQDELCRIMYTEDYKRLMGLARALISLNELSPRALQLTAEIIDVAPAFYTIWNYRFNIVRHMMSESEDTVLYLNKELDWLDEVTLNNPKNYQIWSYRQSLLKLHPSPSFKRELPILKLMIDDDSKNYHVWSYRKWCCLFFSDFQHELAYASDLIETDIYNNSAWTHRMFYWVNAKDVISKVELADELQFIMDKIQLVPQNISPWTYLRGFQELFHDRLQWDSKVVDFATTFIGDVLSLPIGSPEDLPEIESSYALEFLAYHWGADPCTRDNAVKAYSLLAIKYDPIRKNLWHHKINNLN
T1 sequence (P22007 whole entry): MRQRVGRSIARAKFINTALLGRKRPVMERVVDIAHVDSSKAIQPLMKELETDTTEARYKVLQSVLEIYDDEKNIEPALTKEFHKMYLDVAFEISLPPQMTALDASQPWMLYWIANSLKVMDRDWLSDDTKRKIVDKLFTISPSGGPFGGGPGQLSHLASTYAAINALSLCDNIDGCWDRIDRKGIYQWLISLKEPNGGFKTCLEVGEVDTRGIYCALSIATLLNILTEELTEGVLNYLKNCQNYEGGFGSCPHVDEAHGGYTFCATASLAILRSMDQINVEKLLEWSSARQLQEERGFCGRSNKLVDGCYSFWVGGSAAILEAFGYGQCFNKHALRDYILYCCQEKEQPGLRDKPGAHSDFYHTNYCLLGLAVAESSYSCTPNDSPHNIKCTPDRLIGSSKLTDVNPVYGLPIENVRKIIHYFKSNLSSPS
Briefly: (§1) Dissociation constant against yeast farnesyltransferase. The class given is protein-complex assay.

Substrate in series [2]: CC(C)=CCC/C(C)=C/CC/C(C)=C/COP(=O)(O)OP(=O)(O)O
The series is described as §1. The class given is protein-complex assay. As to conditions: Saccharomyces cerevisiae.

Usually Ki stands for a measure of affinity in units of concentration, obtained from inhibition or displacement. Read a high Ki as lower affinity. The term Km denotes the concentration of substrate that gives half-maximal velocity.

With `CC(C)=C/C=C/C(C)=C/C=C/C(C)=C/COP(=O)(O)OP(=O)(O)O`, the affinity in series [1], expressed as Ki, was 8.8 µM.

B1: Farnesyltransferase (Saccharomyces cerevisiae S288c), P29703+P22007 (protein)
chain 1: T1 sequence (P29703 whole entry)
chain 2: T1 sequence (P22007 whole entry)
For B1, the Km in series [2] was 27 µM.
